Assay results from ChEMBL document CHEMBL6114967, “Design and synthesis of novel sulfur-substituted triptolide with the ability to induce autophagy through inhibition of SRSF1 expression” (Eur J Med Chem, 2025).
pIC50: −log10 of the molar value. Calls of active or inactive are those of the source. No cut-off for these calls is given here.

What was measured:
[1] = system: B16-F10; assay: Antiproliferative activity against mouse B16-F10 cells assessed as inhibition of cell proliferation incubated for 72 hrs by MTT assay; assay type: functional, cell-based; settings: B16-F10, 72 h
[2] = system: HepG2; assay: Antiproliferative activity against human HepG2 cells assessed as inhibition of cell proliferation incubated for 72 hrs by MTT assay; assay type: functional, cell-based; settings: HepG2, 72 h
[3] = system: U-251; assay: Antiproliferative activity against human U-251 cells assessed as inhibition of cell proliferation incubated for 72 hrs by MTT assay; assay type: functional, cell-based; settings: U-251, 72 h
[4] = system: BGC-823; assay: Antiproliferative activity against human BGC-823 cells assessed as inhibition of cell proliferation incubated for 72 hrs by MTT assay; assay type: functional, cell-based; settings: BGC-823, 72 h
[5] = system: A549; assay: Antiproliferative activity against human A549 cells assessed as inhibition of cell proliferation incubated for 72 hrs by MTT assay; assay type: functional, cell-based; settings: A549, 72 h
[6] = system: HCT-116; assay: Antiproliferative activity against human HCT-116 cells assessed as inhibition of cell proliferation incubated for 72 hrs by MTT assay; assay type: functional, cell-based; settings: HCT-116, 72 h
[7] = system: HGC-27; assay: Antiproliferative activity against human HGC-27 cells assessed as inhibition of cell proliferation incubated for 72 hrs by MTT assay; assay type: functional, cell-based; settings: HGC-27, 72 h
[8] = system: SGC-7901; assay: Antiproliferative activity against human SGC-7901 cells assessed as inhibition of cell proliferation incubated for 72 hrs by MTT assay; assay type: functional, cell-based; settings: SGC-7901, 72 h
[9] = system: AGS; assay: Antiproliferative activity against human AGS cells assessed as inhibition of cell proliferation incubated for 72 hrs by MTT assay; assay type: functional, cell-based
[10] = system: MCF7; assay: Antiproliferative activity against human MCF7 cells assessed as inhibition of cell proliferation incubated for 72 hrs by MTT assay; assay type: functional, cell-based; settings: MCF7, 72 h
[11] = Selectivity index, ratio of IC50 for antiproliferative activity against human LO2 cells to IC50 for antiproliferative activity against human AGS cells; assay type: cell-based; settings: LO2 cells and AGS cells, read-out: Ratio IC50
[12] = Selectivity index, ratio of IC50 for antiproliferative activity against human LO2 cells to IC50 for antiproliferative activity against human HGC-27 cells; assay type: toxicity, cell-based; settings: LO2 cells and HGC-27 cells, read-out: Ratio IC50
[13] = Antiproliferative activity against human LO2 cells assessed as inhibition of cell proliferation incubated for 72 hrs by MTT assay; assay type: toxicity, cell-based, L02
[14] = Toxicity in male ICR mouse assessed as animal death at 2 mg/kg, ip measured after 4 days; assay type: organism-based; settings: in vivo, 96 h, time 4 day
[15] = system: AGS; assay: Induction of apoptosis in human AGS cells assessed as late apoptotic cells at 0.1 uM incubated for 48 hrs by annexin V-FITC and PI staining based flow cytometry analysis (reference value: 3.15%); assay type: functional
[16] = Toxicity in male ICR mouse assessed as body weight loss at 2 mg/kg, ip measured after 4 days; assay type: organism-based; settings: in vivo, 96 h, time 4 day
[17] = system: AGS; assay: Induction of apoptosis in human AGS cells assessed as viable cells at 0.1 uM incubated for 48 hrs by annexin V-FITC and PI staining based flow cytometry analysis (reference value: 92.0%); assay type: functional; settings: read-out: Activity
[18] = Acute toxicity in male ICR mouse assessed as appearance of bright cytoplasm at 2 mg/kg, ip measured after 7 days by H and E staining based light microscopic analysis; assay type: organism-based; settings: in vivo, 168 h, time 7 day
[19] = system: HGC-27; assay: Induction of apoptosis in human HGC-27 cells assessed as necrotic cells at 0.1 uM incubated for 48 hrs by annexin V-FITC and PI staining based flow cytometry analysis (reference value: 0.062%); assay type: functional
[20] = system: AGS; assay: Induction of apoptosis in human AGS cells assessed as necrotic cells at 0.1 uM incubated for 48 hrs by annexin V-FITC and PI staining based flow cytometry analysis (reference value: 0.44%); assay type: functional
[21] = system: HGC-27; assay: Antitumor activity against human HGC-27 cells xenografted in male BALB/c nude mouse assessed as tumor growth inhibition at 0.5 mg/kg, ip administered every day for 15 days relative to control; assay type: functional; settings: HGC-27, 360 h, time 15 day, read-out: TGI
[22] = Acute toxicity in male ICR mouse assessed as abnormal hepatocyte morphology at 2 mg/kg, ip measured after 7 days by H and E staining based light microscopic analysis; assay type: organism-based; settings: in vivo, 168 h, time 7 day
[23] = system: HGC-27; assay: Induction of apoptosis in human HGC-27 cells assessed as early apoptotic cells at 0.1 uM incubated for 48 hrs by annexin V-FITC and PI staining based flow cytometry analysis (reference value: 3.13%); assay type: functional
[24] = system: AGS; assay: Induction of apoptosis in human AGS cells assessed as early apoptotic cells at 0.1 uM incubated for 48 hrs by annexin V-FITC and PI staining based flow cytometry analysis (reference value: 4.44%); assay type: functional
[25] = Acute toxicity in male ICR mouse assessed as appearance of empty cytoplasm at 2 mg/kg, ip measured after 7 days by H and E staining based light microscopic analysis; assay type: organism-based; settings: in vivo, 168 h, time 7 day
[26] = system: HGC-27; assay: Induction of autophagy in human HGC-27 cells assessed as increase in LC3 II/LC3 I ratio in tumor tissue at 25 to 100 mg/kg, ip administered daily; assay type: functional, organism-based; settings: dose 25-100 mg/kg
[27] = system: HGC-27; assay: Induction of apoptosis in human HGC-27 cells assessed as viable cells at 0.1 uM incubated for 48 hrs by annexin V-FITC and PI staining based flow cytometry analysis (reference value: 91.8%); assay type: functional; settings: read-out: Activity
[28] = system: HGC-27; assay: Induction of apoptosis in human HGC-27 cells assessed as late apoptotic cells at 0.1 uM incubated for 48 hrs by annexin V-FITC and PI staining based flow cytometry analysis (reference value: 5.02%); assay type: functional
[29] = Acute toxicity in male ICR mouse assessed as enlarged hepatocyte volume at 2 mg/kg, ip measured after 7 days by H and E staining based light microscopic analysis; assay type: organism-based; settings: in vivo, 168 h, time 7 day
[30] = Acute toxicity in male ICR mouse assessed as appearance of unclear cell boundaries at 2 mg/kg, ip measured after 7 days by H and E staining based light microscopic analysis; assay type: organism-based; settings: in vivo, 168 h, time 7 day

SMILES | pIC50 [1] | pIC50 [2] | pIC50 [3] | pIC50 [4] | pIC50 [5] | pIC50 [6] | pIC50 [7] | pIC50 [8] | pIC50 [9] | pIC50 [10] | selectivity ratio [11] | selectivity ratio [12] | IC50 at 72 h [13] | also measured
CC(C)[C@]12O[C@H]1[C@@H]1O[C@]13[C@]1(O[C@H]1C[C@H]1C4=C(CC[C@@]13C)C(=S)O[C@H]4O)[C@@H]2O | < 5.00 | < 5.00 | < 5.00 | < 5.00 | < 5.00 | 5.25 | < 5.00 | < 5.00 | < 5.00 | < 5.00 | – | – | – | –
CC(C)[C@]12O[C@H]1[C@@H]1O[C@]13[C@]1(O[C@H]1C[C@H]1C4=C(CC[C@@]13C)C(=S)OC4)[C@H]2O | 5.84 | 5.73 | 5.20 | 5.44 | < 5.00 | 5.87 | 6.15 | 5.32 | 5.59 | 5.52 | 2.68 | 12.2 | 6910 nM | –
CC(C)[C@]12O[C@H]1[C@@H]1O[C@@]13[C@@]1(C)CCC4=C(COC4=S)[C@@H]1C[C@@H]1O[C@@]13C2=O | 5.99 | 6.20 | 5.61 | 5.88 | < 5.00 | 6.28 | 6.21 | 5.73 | 5.99 | 5.75 | 3.26 | 5.43 | 3350 nM | –
CC(C)[C@]12O[C@H]1[C@@H]1O[C@]13[C@]1(O[C@H]1C[C@H]1C4=C(CC[C@@]13C)C(=S)O[C@H]4O)[C@H]2O | < 5.00 | < 5.00 | < 5.00 | < 5.00 | < 5.00 | < 5.00 | < 5.00 | < 5.00 | < 5.00 | < 5.00 | – | – | – | –
CC(C)[C@]12O[C@H]1[C@@H]1O[C@@]13[C@@]1(C)CCC4=C([C@H](O)OC4=S)[C@@H]1C[C@@H]1O[C@@]13C2=O | < 5.00 | < 5.00 | < 5.00 | < 5.00 | < 5.00 | 5.07 | < 5.00 | < 5.00 | < 5.00 | < 5.00 | – | – | – | –
CC(C)[C@]12O[C@H]1[C@@H]1O[C@@]13[C@@]1(C)CCC4=C(COC4=O)[C@@H]1C[C@@H]1O[C@@]13C2=O [TRIPTONIDE] | 7.70 | 7.30 | 7.70 | 7.05 | 6.34 | 6.89 | 7.00 | 6.96 | 7.30 | 7.30 | – | – | – | –
CC(C)[C@]12O[C@H]1[C@@H]1O[C@]13[C@]1(O[C@H]1C[C@H]1C4=C(CC[C@@]13C)C(=O)OC4)[C@@H]2O [TRIPTOLIDE] | 8.52 | 7.22 | 7.70 | 7.22 | 7.40 | 8.00 | 7.70 | 7.40 | 7.40 | 7.15 | 1.08 | 1.89 | 40 nM | Activity [14]: Toxic; Activity [15]: 37.9%; Activity [16]: Toxic; viability at 0.1 µM [17]: 10%; Activity [18]: Toxic; Activity [19]: 0.16%; Activity [20]: 1.65%; inhibition in vivo at 0.5 mg/kg [21]: 97.2%; Activity [22]: Toxic; Activity [23]: 34%; Activity [24]: 50.5%; Activity [25]: Toxic; Activity [26]: inactive; viability at 0.1 µM [27]: 48.5%; Activity [28]: 17.4%; Activity [29]: Toxic; Activity [30]: Toxic
